According to PubChem BioAssay (NCI):
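All cell lines were grown in 96-well plates and treated with compound for 48 hours. The concentration for full growth arrest is given as TGI.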

Experiments:
Experiment in all cases: NCI anticancer screen, dose series, 48 h
[1] = system: HCC-2998 colon
[2] = system: ACHN renal
[3] = system: LXFL 529 NSCLC
[4] = system: OVCAR-3 ovarian
[5] = system: SW-620 colon
[6] = system: K-562 leukemia
[7] = system: UO-31 renal
[8] = system: EKVX NSCLC
[9] = system: HT29 colon
[10] = system: HOP-62 NSCLC
[11] = system: SF-539 CNS
[12] = system: RPMI-8226 leukemia
[13] = system: UACC-62 melanoma
[14] = system: TK-10 renal
[15] = system: OVCAR-8 ovarian
[16] = system: KM12 colon
[17] = system: MALME-3M melanoma
[18] = system: SN12C renal
[19] = system: RXF 393 renal
[20] = system: HOP-92 NSCLC

Measured: TGI

CC(C)N(C(=O)C12C3C4C1C1C2C3C41C(=O)N(C(C)C)C(C)C)C(C)C (configuration not stated)
not listed: [19] | [20]
> 50 µM: all other assays above

CS(=O)(=O)C1(Br)S(=O)(=O)OCCOS1(=O)=O
not listed: [16]
> 100 µM: all other assays above

C/C(N=NS(=O)(=O)c1ccc(C)cc1)=C1\C=CC=CN1O
not listed: [6] | [17] | [19]
> 100 µM: all other assays above

CN(C)C(F)=PC(F)(F)F (configuration not stated)
not listed: [4]
> 100 µM: all other assays above

COC(=O)c1ccc(C=C(C#N)C#N)cc1
41.6 µM: [18]
92.2 µM: [16]
56.5 µM: [15]
> 100 µM: [8] | [9]
32.9 µM: [1]
37.4 µM: [3]
62.8 µM: [6]
39.8 µM: [11]
57.6 µM: [13]
39.6 µM: [20] | [17]
74.8 µM: [10]
72.6 µM: [12]
56.9 µM: [2]
67.5 µM: [4]
79.1 µM: [14]
45.1 µM: [5]

O=c1ccc2ccccc2c2ccccc12
7.12 µM: [13]
4.09 µM: [11]
13.8 µM: [7]
10.9 µM: [5]
11.5 µM: [4]
5.76 µM: [16]
12.4 µM: [2]
6.44 µM: [18]
10.4 µM: [3]
35.8 µM: [8]
28 µM: [14]
7.83 µM: [12]
6.78 µM: [9]
11.2 µM: [10]
22.3 µM: [17]
4.61 µM: [15]
33.1 µM: [6]
21.4 µM: [1]

CSc1ccc2c(cc1=O)C(NC(=O)c1ccc(C#N)cc1)CCc1cc(O)c(O)c(O)c1-2 (configuration not stated)
36.1 µM: [11]
99.7 µM: [15]
81.6 µM: [1]
75.3 µM: [9]
25.1 µM: [6]
40.3 µM: [18]
46.3 µM: [13]
44.4 µM: [3]
37.7 µM: [5]
not listed: [12] | [19] | [20]
> 100 µM: all other assays above

c1ccc(C2=C(c3ccccc3)Sc3nnc(CCCCCCCCc4nnc5n4NC(c4ccccc4)=C(c4ccccc4)S5)n3N2)cc1
not listed: [3]
> 100 µM: all other assays above

O=c1[nH]c(=O)n(C2C(CO)OC(CO)C2O)cc1F (configuration not stated)
not listed: [3]
> 100 µM: all other assays above

Nc1[nH]c(=O)[nH]c(=O)c1Cc1cccc(Cl)c1
not listed: [3]
> 100 µM: all other assays above

CN(C)CC(/C(Cc1ccccc1)=N\NC(=S)NN)c1ccccc1 (configuration not stated)
not listed: [8]
> 100 µM: all other assays above

Cc1ccc(S(=O)(=O)N2CCN(S(=O)(=O)c3ccc(C)cc3)CCN(S(=O)(=O)c3ccc(C)cc3)Cc3cc(Br)c(Br)cc3CN(S(=O)(=O)c3ccc(C)cc3)CC2)cc1
92.4 µM: [20]
not listed: [3]
> 100 µM: all other assays above

Nc1nc2ncn(CC(O)CO)c2c(=O)[nH]1 (configuration not stated)
not listed: [1]
> 100 µM: all other assays above

Nc1nc2c(ncn2CCCC(c2ccccc2)P(=O)(O)O)c(=O)[nH]1 (configuration not stated)
not listed: [19]
> 100 µM: all other assays above

COc1cc(-c2cc(=O)c3ccccc3[nH]2)cc(OC)c1OC
not listed: [20]
> 75 µM: all other assays above

O=C(O)CC12CC3CC(CC(O)(C3)C1)C2
77.1 µM: [17]
not listed: [3]
> 100 µM: all other assays above

COC1=C2CC(C)CC(OC)C(OC(=O)CCCN)C(C)/C=C(\C)C(OC(N)=O)C(OC)/C=C\C=C(/C)C(=O)NC(=CC1=O)C2=O (configuration not stated)
19.4 µM: [1] | [6]
20.2 µM: [14]
25.6 µM: [19]
32.5 µM: [12]
18.7 µM: [13]
16.1 µM: [18]
16.8 µM: [4]
25.7 µM: [16]
32 µM: [10]
26.6 µM: [8]
16.9 µM: [11]
21.6 µM: [15]
13.2 µM: [9]
14.6 µM: [20]
14.9 µM: [17]
17.8 µM: [2]
23.1 µM: [7]
17.7 µM: [5]

Oc1cccnc1/C=N/OCc1ccccc1
72.8 µM: [19]
not listed: [20]
> 100 µM: all other assays above

O=C(Nc1nc2ncn(CCO)c2c(=O)[nH]1)c1ccccc1
not listed: [1]
> 100 µM: all other assays above

O=C(O)C12CC3CC(CC(F)(C3)C1)C2
not listed: [18]
> 100 µM: all other assays above

O=C1C=C(C2=C(C3=CC(=O)c4ccccc4C3=O)C(=O)c3ccccc3C2=O)C(=O)c2ccccc21
43.1 µM: [1]
20.5 µM: [5]
14.5 µM: [19]
16.5 µM: [18]
> 39.5 µM: [6]
37.9 µM: [2]
12.5 µM: [9]
21.7 µM: [11]
33.5 µM: [10]
21.8 µM: [14]
30.8 µM: [16]
4.82 µM: [17]
18 µM: [20]
33.8 µM: [8]
19.1 µM: [15]
12.2 µM: [12]
11.1 µM: [7]
31.6 µM: [13]
12.9 µM: [4]

O=c1[nH]c2nc[nH]c2c(=O)n1C1CCCCC1
not listed: [3]
> 100 µM: all other assays above

COc1ccc(/C=C/c2cc(OC)c(OCc3ccccc3)c(OC)c2)cc1
not listed: [14] | [19]
> 100 µM: all other assays above

O=C(/C=C(\Nc1ccccc1O)c1ccc(Br)cc1)C(Cl)(Cl)Cl
31.6 µM: [10]
7.29 µM: [12]
27 µM: [15]
19.1 µM: [14]
27.1 µM: [11]
10.8 µM: [7]
32.5 µM: [6]
19.2 µM: [19]
20.8 µM: [9]
16.5 µM: [5]
5.88 µM: [1]
14.9 µM: [2]
13.9 µM: [8] | [16]
26.3 µM: [13]
29.2 µM: [17]
15.4 µM: [20]
20 µM: [18]
18.5 µM: [4]

NC(CCCCNCc1ccccc1O)C(=O)O (configuration not stated)
not listed: [19]
> 100 µM: all other assays above
